According to patent US7414048B2, “4,5-dihydro-isoxazole derivatives and their pharmaceutical use” (Janssen Pharmaceutica, N.V., priority 1998, dated 2008):

Tested on: T cell blast formation in human blood
Experiment: In vitro inhibition of T cell blast formation in human blood (human whole blood blast formation, PHA stimulated, flow cytometry)
Format: cell-based
Conditions: 72 hours, mean where multiple measurements
Procedure: Cells are collected after a 72 hours culture period at 37° C., supernatant is removed by centrifugation and red blood cells are lysed by a hypotonic buffer. The remaining white blood cells are collected in PBS containing propidium iodide. The blast formation is analyzed using a benchtop flow cytometer (Cytoron, Ortho) equipped with an argon-ion laser. […] When multiple measurements were performed, a mean value was calculated for the percentage inhibition of T cell blast formation.

[1] = Test Dose 1 × 10^−6 (unit not given)
[2] = Test Dose 3 × 10^−7 (unit not given)
[3] = Test Dose 1 × 10^−7 (unit not given)
[4] = Test Dose 1 × 10^−5 (unit not given)

For `O=C(c1ccc(NC(=O)C2CC(c3cccnc3)=NO2)cc1)c1ccccc1Cl` (stereo not shown) [Compound 14], the “% Inhibition of T cell blast formation” value [1] was 78%.
`COc1ccccc1/C=C/C(=O)c1ccc(NC(=O)C2CC(c3cccnc3)=NO2)cc1` (racemic) [Compound 477] was tested, and the “% Inhibition of T cell blast formation” value [2] was 63%.
`O=C(Cc1ccccc1)NC(c1ccccc1)c1ccc(NC(=O)C2CC(c3cccnc3)=NO2)cc1` (stereo not shown) [Compound 166] was tested, and the “% Inhibition of T cell blast formation” value [1] was 66%.
`O=C(c1ccc(F)cc1)c1ccc(NC(=O)C2CC(c3cccnc3)=NO2)cc1` (stereo not shown) [Compound 13] was tested, and the “% Inhibition of T cell blast formation” value [1] was 78%.
For `O=C(Nc1ccc(C(Nc2ccc(C(F)(F)F)cc2Br)c2ccccc2)cc1)C1CC(c2cccnc2)=NO1` (stereo not shown) [Compound 218], the “% Inhibition of T cell blast formation” value [2] was 33%.
In the case of `O=C(c1ccc(NC(=O)C2CC(c3cccnc3)=NO2)cc1)c1ccc(F)cc1F` (stereo not shown) [Compound 398], the “% Inhibition of T cell blast formation” value [1] was 87%.
For `Cc1cc(NC(c2ccccc2)c2ccc(NC(=O)C3CC(c4cccnc4)=NO3)cc2)no1` (stereo not shown) [Compound 162], the “% Inhibition of T cell blast formation” value [2] was 46%.
In the case of `CCOC(=O)NC(c1ccccc1)c1ccc(NC(=O)C2CC(c3cccnc3)=NO2)cc1` (stereo not shown) [Compound 131], the “% Inhibition of T cell blast formation” value [1] was 95%.
`COc1ccccc1C(=NO)c1ccc(NC(=O)C2CC(c3cccnc3)=NO2)cc1` (stereo not shown) [Compound 434] was tested, and the “% Inhibition of T cell blast formation” value [3] was 83%.
For `O=C(Nc1cccnc1)c1ccc(NC(=O)C2CC(c3cccnc3)=NO2)cc1` (stereo not shown) [Compound 263], the “% Inhibition of T cell blast formation” value [1] was 59%.
For `O=C(NCc1ccc(F)cc1)c1ccc(NC(=O)C2CC(c3cccnc3)=NO2)cc1` (stereo not shown) [Compound 270], the “% Inhibition of T cell blast formation” value [1] was 71%.
For `O=C(NCc1ccccc1Br)c1ccc(NC(=O)C2CC(c3cccnc3)=NO2)cc1` (stereo not shown) [Compound 269], the “% Inhibition of T cell blast formation” value [1] was 67%.
In the case of `O=C(Nc1ccc(Sc2ccccc2)cc1)C1CC(c2cccnc2)=NO1` (stereo not shown) [Compound 374], the “% Inhibition of T cell blast formation” value [4] was 85%.
In the case of `CCCC(=O)NC(c1ccccc1)c1ccc(NC(=O)C2CC(c3cccnc3)=NO2)cc1` (stereo not shown) [Compound 156], the “% Inhibition of T cell blast formation” value [1] was 56%.
For `O=C(Nc1ccc(C(O)c2ccncc2)cc1)C1CC(c2cccnc2)=NO1` (stereo not shown) [Compound 407], the “% Inhibition of T cell blast formation” value [2] was 63%.
For `CN(CCC1OCCO1)C(c1ccccc1)c1ccc(NC(=O)C2CC(c3cccnc3)=NO2)cc1` (stereo not shown) [Compound 122], the “% Inhibition of T cell blast formation” value [2] was 36%.
For `O=C(Nc1ccc(Nc2ccc(S(=O)(=O)C(F)(F)F)cc2)cc1)C1CC(c2cccnc2)=NO1` (stereo not shown) [Compound 376], the “% Inhibition of T cell blast formation” value [2] was 69%.
In the case of `CC(O)(c1ccccc1)c1ccc(NC(=O)C2CC(c3cccnc3)=NO2)cc1` (stereo not shown) [Compound 411, (A2)-4,5-dihydro-N-[4-(1-hydroxy-1-phenylethyl)phenyl]-3-(3-pyridinyl)-5-isoxazolecarboxamide], the “% Inhibition of T cell blast formation” value [1] was 77%.
`O=C(Nc1ccc(C(=NO)c2cccc(OC(F)(F)F)c2)cc1)C1CC(c2cccnc2)=NO1` (stereo not shown) [Compound 430] was tested, and the “% Inhibition of T cell blast formation” value [2] was 67%.
With `O=C(Nc1ccc(C(NCc2ccncc2)c2ccccc2)cc1)C1CC(c2cccnc2)=NO1` (stereo not shown) [Compound 97] the “% Inhibition of T cell blast formation” value [1] was 58%.
`C#CC(O)(c1ccccc1)c1ccc(NC(=O)C2CC(c3cccnc3)=NO2)cc1` (racemic) [Compound 69, [B(R)]±[B(S)]-4,5-dihydro-N-[4-(1-hydroxy-1-phenyl-2-propynyl)phenyl]-3-(3-pyridinyl)-5-isoxazolecarboxamide] was tested, and the “% Inhibition of T cell blast formation” value [1] was 73%.
`O=C(Nc1ccc(C(=NO)c2ccc3c(c2)OCO3)cc1)C1CC(c2cccnc2)=NO1` (stereo not shown) [Compound 429] was tested, and the “% Inhibition of T cell blast formation” value [1] was 86%.
`O=C(Nc1ccc(C(=O)N2CCN(c3ccccc3)CC2)cc1)C1CC(c2cccnc2)=NO1` (stereo not shown) [Compound 379] was tested, and the “% Inhibition of T cell blast formation” value [2] was 51%.
With `O=C(Nc1ccc(-c2nc(-c3ccccc3)no2)cc1)C1CC(c2cccnc2)=NO1` (stereo not shown) [Compound 453] the “% Inhibition of T cell blast formation” value [1] was 61%.
For `CC(C#N)(c1ccccc1)c1ccc(NC(=O)C2CC(c3cccnc3)=NO2)cc1` (stereo not shown) [Compound 45], the “% Inhibition of T cell blast formation” value [1] was 78%.
For `Nc1cccc(F)c1CNC(=O)c1ccc(NC(=O)C2CC(c3cccnc3)=NO2)cc1` (stereo not shown) [Compound 292], the “% Inhibition of T cell blast formation” value [2] was 40%.
In the case of `O=C(Nc1ccc(C(=NO)c2ccccn2)cc1)C1CC(c2cccnc2)=NO1` (stereo not shown) [Compound 439], the “% Inhibition of T cell blast formation” value [1] was 79%.
`COc1ccc(C(=NO)c2ccc(NC(=O)C3CC(c4cccnc4)=NO3)cc2)c(OC)c1` (stereo not shown) [Compound 438] was tested, and the “% Inhibition of T cell blast formation” value [3] was 82%.
With `O=C(Nc1ccc(-c2nc(-c3ccccc3)cs2)cc1)C1CC(c2cccnc2)=NO1` (stereo not shown) [Compound 454] the “% Inhibition of T cell blast formation” value [2] was 59%.
`Cc1nc2ccccc2n1-c1ccc(NC(=O)C2CC(c3cccnc3)=NO2)cc1` (stereo not shown) [Compound 467] was tested, and the “% Inhibition of T cell blast formation” value [1] was 82%.
For `O=C(CCc1ccccc1)c1ccc(NC(=O)C2CC(c3cccnc3)=NO2)cc1` (stereo not shown) [Compound 380], the “% Inhibition of T cell blast formation” value [1] was 67%.
`COc1cccc(C(=O)c2ccc(NC(=O)C3CC(c4cccnc4)=NO3)cc2)c1` (stereo not shown) [Compound 9] was tested, and the “% Inhibition of T cell blast formation” value [1] was 71%.
In the case of `CC(C)NC(c1ccccc1)c1ccc(NC(=O)C2CC(c3cccnc3)=NO2)cc1` (stereo not shown) [Compound 100], the “% Inhibition of T cell blast formation” value [1] was 35%.
For `O=C(Nc1ccc(C(=O)N2CCC(c3ccccc3)CC2)cc1)C1CC(c2cccnc2)=NO1` (stereo not shown) [Compound 307], the “% Inhibition of T cell blast formation” value [2] was 41%.
`O=C(c1ccc(NC(=O)C2CC(c3cccnc3)=NO2)cc1)c1cccc(F)c1` (stereo not shown) [Compound 12] was tested, and the “% Inhibition of T cell blast formation” value [1] was 83%.
For `O=C(c1ccc(NC(=O)C2CC(c3cccnc3)=NO2)cc1)c1ccccn1` (single isomer, unassigned) [Compound 489], the “% Inhibition of T cell blast formation” value [3] was 80%.
`O=C(NC(c1ccccc1)c1ccc(NC(=O)C2CC(c3cccnc3)=NO2)cc1)c1c(F)cccc1F` (stereo not shown) [Compound 158] was tested, and the “% Inhibition of T cell blast formation” value [2] was 64%.
In the case of `COc1ccc(OC)c(C(=O)c2ccc(NC(=O)C3CC(c4cccnc4)=NO3)cc2)c1` (stereo not shown) [Compound 395], the “% Inhibition of T cell blast formation” value [1] was 77%.
`Cn1nc(-c2ccc(NC(=O)C3CC(c4cccnc4)=NO3)cc2)c2ccc(F)cc21` (stereo not shown) [Compound 465] was tested, and the “% Inhibition of T cell blast formation” value [4] was 83%.
For `CN1CCC(NC(c2ccccc2)c2ccc(NC(=O)C3CC(c4cccnc4)=NO3)cc2)CC1` (stereo not shown) [Compound 102], the “% Inhibition of T cell blast formation” value [1] was 66%.
`O=C(c1ccc(NC(=O)C2CC(c3cccnc3)=NO2)cc1)c1ccc2c(c1)OCO2` (stereo not shown) [Compound 389] was tested, and the “% Inhibition of T cell blast formation” value [2] was 59%.
For `O=C(Nc1ccc(-c2n[nH]c3cc(F)ccc23)cc1)C1CC(c2cccnc2)=NO1` (stereo not shown) [Compound 463], the “% Inhibition of T cell blast formation” value [2] was 33%.
`O=C(c1ccc(NC(=O)C2CC(c3cccnc3)=NO2)cc1)c1cccs1` (stereo not shown) [Compound 490] was tested, and the “% Inhibition of T cell blast formation” value [1] was 58%.
In the case of `O=C(Nc1ccc(C(O)c2ccccn2)cc1)C1CC(c2cccnc2)=NO1` (single isomer, unassigned) [Compound 525], the “% Inhibition of T cell blast formation” value [1] was 74%.
For `O=C(Nc1ccc(C(Nc2ccc3[nH]nnc3c2)c2ccccc2)cc1)C1CC(c2cccnc2)=NO1` (stereo not shown) [Compound 96], the “% Inhibition of T cell blast formation” value [1] was 39%.
For `COC(c1ccccc1)c1ccc(NC(=O)C2CC(c3cccnc3)=NO2)cc1.Cl` (stereo not shown) [Compound 52], the “% Inhibition of T cell blast formation” value [1] was 89%.
`O=C(NCCc1ccco1)c1ccc(NC(=O)C2CC(c3cccnc3)=NO2)cc1` (stereo not shown) [Compound 268] was tested, and the “% Inhibition of T cell blast formation” value [1] was 58%.
In the case of `COc1cc(CNC(=O)c2ccc(NC(=O)C3CC(c4cccnc4)=NO3)cc2)cc(OC)c1OC` (stereo not shown) [Compound 281], the “% Inhibition of T cell blast formation” value [1] was 74%.
In the case of `O=C(Nc1ccc(C(=NO)c2ccncc2)cc1)C1CC(c2cccnc2)=NO1` (stereo not shown) [Compound 428], the “% Inhibition of T cell blast formation” value [3] was 57%.
With `COC(=O)OC(C#N)(c1ccccc1)c1ccc(NC(=O)C2CC(c3cccnc3)=NO2)cc1` (stereo not shown) [Compound 524] the “% Inhibition of T cell blast formation” value [1] was 81%.
For `O=C(Nc1ccc(C(NC2CCN(Cc3ccccc3)CC2)c2ccccc2)cc1)C1CC(c2cccnc2)=NO1` (stereo not shown) [Compound 104], the “% Inhibition of T cell blast formation” value [1] was 60%.
`O=C(Nc1ccc(-c2noc3cc(F)ccc23)cc1)C1CC(c2cccnc2)=NO1` (stereo not shown) [Compound 466] was tested, and the “% Inhibition of T cell blast formation” value [4] was 82%.
With `Nc1ccc(C(=O)c2ccc(NC(=O)C3CC(c4cccnc4)=NO3)cc2)cc1` (stereo not shown) [Compound 17] the “% Inhibition of T cell blast formation” value [2] was 53%.
In the case of `CC(C)OC(=O)OC(c1ccccc1)c1ccc(NC(=O)[C@@H]2CC(c3cccnc3)=NO2)cc1` (stereo partly shown) [Compound 508, [5S(A)]-[4-[[[4,5-dihydro-3-(3-pyridinyl)-5-isoxazolyl]carbonyl]amino]phenyl]phenylmethyl 1-methylethyl carbonic acid (ester)], the “% Inhibition of T cell blast formation” value [2] was 70%.
For `Cn1ncc2ccc(CNC(c3ccccc3)c3ccc(NC(=O)C4CC(c5cccnc5)=NO4)cc3)cc21` (stereo not shown) [Compound 94], the “% Inhibition of T cell blast formation” value [1] was 44%.
For `NC(=O)C(c1ccccc1)c1ccc(NC(=O)C2CC(c3cccnc3)=NO2)cc1` (stereo not shown) [Compound 312], the “% Inhibition of T cell blast formation” value [1] was 93%.
For `O=C(Nc1ccc(C(Nc2ccccc2)c2ccccc2)cc1)C1CC(c2cccnc2)=NO1` (stereo not shown) [Compound 113], the “% Inhibition of T cell blast formation” value [2] was 37%.
In the case of `O=C(Nc1ccc(C(O)(c2ccccc2)c2ccccn2)cc1)C1CC(c2cccnc2)=NO1` (single isomer, unassigned) [Compound 68], the “% Inhibition of T cell blast formation” value [1] was 61%.
With `O=C(c1ccc(NC(=O)C2CC(c3cccnc3)=NO2)cc1)c1ccc(OC(F)(F)F)cc1` (stereo not shown) [Compound 384] the “% Inhibition of T cell blast formation” value [2] was 68%.
For `Cc1cccc(NC(c2ccccc2)c2ccc(NC(=O)C3CC(c4cccnc4)=NO3)cc2)c1C` (stereo not shown) [Compound 175], the “% Inhibition of T cell blast formation” value [1] was 42%.
With `O=C(c1ccc(NC(=O)C2CC(c3cccnc3)=NO2)cc1)c1ccc2ccccc2n1` (stereo not shown) [Compound 392] the “% Inhibition of T cell blast formation” value [1] was 80%.
In the case of `O=C(Nc1ccc(-n2cnc3ccccc32)cc1)C1CC(c2cccnc2)=NO1` (stereo not shown) [Compound 464], the “% Inhibition of T cell blast formation” value [1] was 85%.
In the case of `O=C(NCc1cccs1)c1ccc(NC(=O)C2CC(c3cccnc3)=NO2)cc1` (stereo not shown) [Compound 289], the “% Inhibition of T cell blast formation” value [1] was 64%.
`CN1N=C(c2ccc(NC(=O)C3CC(c4cccnc4)=NO3)cc2)CC1c1ccccc1` (stereo not shown) [Compound 459] was tested, and the “% Inhibition of T cell blast formation” value [1] was 77%.
